The test system of data set [1] is HaCaT (HCT, EpCAM+) cells. Briefly: Cell-specific apoptosis rate in mixed HaCaT/Jurkat cell cultures (biocytometry readout). Format: cell-based. On the procedure: The presently described biocytometry was evaluated for measuring cell-specific apoptosis in mixed cell cultures. Despite the growing trend toward studying apoptosis in complex biological systems such as organoids and mixed cell cultures, conventional methods such as Caspase-based assays and MTT tests still yield limited sensitivity and quantify only aggregate apoptosis levels. To assess cell-specific apoptosis, mixed cultures of HaCaT (HCT, EpCAM+) and Jurkat (JUR, EpCAM−) cells at varied ratios (1:0 to 1:8) were utilized. Cells were cultured at a density of 40,000 cells/well in RPMI medium supplemented with 10% FBS and either subjected to 1 mM DTT treatment or left untreated. Following a 2.5-hour incubation at 37° C. in a 5% CO2 atmosphere, both total and apoptotic HaCaT cell counts were established using BIOS(EpCAM) and BIOS (EpCAM+PS), adhering to the biocytometry protocol. A noticeable reduction in total EpCAM+ cell count was evident in induced cell cultures, alongside an increase in the number of apoptotic EpCAM+ cells, aligning with the anticipated apoptotic changes (FIG. 12A). Apoptotic rates were calculated by normalizing BIOS(EpCAM+PS) counts to total cell counts from BIOS(EpCAM). […]

For another data set, the target named is T1, alpha-factor, P01149.
T1 chain: WHWLQLKPGQPMY

Take `O[C@@H](CS)[C@@H](O)CS` [DTT]: the “increase in apoptotic rates among EpCAM+ cells” value in data set [1] (1 mM DTT vs untreated controls) is listed as 7.2 fold. For the same molecule, in data set [1] (1 mM DTT, 2.5-hour incubation at 37° C., 1.7% baseline in untreated controls), the “apoptotic rate among EpCAM+ cells” value was found to be 12.2%.

B1: BAR1 protease of BAR1 computing units (protein)
chain: LTNDGTGHLEFLLQHEEEMYYATTLDIGTPSQSLTVLFDTGSADFWVMDSSNPFCLPNSNTSSYSNATYNGEEVKPSIDCRSMSTYNEHRSSTYQYLENGRFYITYADGTFADGSWGTETVSINGIDIPNIQFGVAKYATTPVSGVLGIGFPRRESVKGYEGAPNEYYPNFPQILKSEKIIDVVAYSLFLNSPDSGTGSIVFGAIDESKFSGDLFTFPMVNEYPTIVDAPATLAMTIQGLGAQNKSSCEHETFTTTKYPVLLDSGTSLLNAPKVIADKMASFVNASYSEEEGIYILDCPVSVGDVEYNFDFGDLQISVPLSSLILSPETEGSYCGFAVQPTNDSMVLGDVFLSSAYVVFDLDNYKISLAQANWNASEVSKKLVNIQTDGSISGAKIATAEPWSTNEPFTVTSDIYSSTGCKSRPFLQSSTASSLIAETNVQSRNCSTKMPGTRSTTVLSKPTQNSAMHQSTGAVTQTSNETKLELSSTMANSGSVSLPTSNSIDKEFEHSKSQTTSDPSVAEHSTFNQTFVHETKYRPTHKTVITETVTKYSTVLINVCKPTY
Turning to B1, the “degradation of alpha-factor; activation threshold of the biosensors” value in the data set with alpha-factor, P01149 is given as “effectively degraded alpha-factor, raising the activation threshold of the biosensors”.

Source of the values: patent publication US20260227397A1, “METHODS AND SYSTEMS OF PROFILING WITH BIOLOGICAL COMPUTING CELLS” (XENO CELL INNOVATIONS S.R.O., priority 2023, published 2026).
